Assay results published in the supplement of paper PMC10627819.

Columns and labels:
Assay in all cases: fitness (endpoint OD595 vs no drug) (fraction); higher = more growth
S. aureus DSM 20231 = test system: S. aureus DSM 20231
In short: (§1)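 Growth medium was TSB, LB Lennox or CY, and plates were kept at 37 °C. Inoculation was at OD595 0.01 in 384-well plates, at 30 µl per well or 55 µl for S. pneumoniae. OD595 was monitored every 30 min for 14 h and background-subtracted using the first reading. Fitness is the optical density on entering stationary phase divided by the robust mean of no-drug controls, with values capped at 1.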

S. pneumoniae D39V = test system: S. pneumoniae D39V
In short: as §1

B. subtilis 168 = test system: B. subtilis 168
In short: as §1

S. aureus Newman = test system: S. aureus Newman
In short: as §1

[1] = first compound 0.125 µg/mL, partner 0.078 µg/mL
[2] = first compound 0.125 µg/mL, partner 0.156 µg/mL
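Note: OD595 on entry to stationary phase over no-drug wells; at most 1.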

Question: Which results are given for CCC[C@@H]1C[C@@H](C(=O)N[C@@H]([C@H]2O[C@H](SC)[C@H](O)[C@@H](O)[C@H]2O)[C@H](C)Cl)N(C)C1 [Clindamycin] + CO/N=C(\C(=O)N[C@@H]1C(=O)N2C(C(=O)O)=C(COC(C)=O)CS[C@H]12)c1csc(N)n1 [Cefotaxime]?
Answer: fitness (S. aureus DSM 20231; first compound 0.0625 µg/mL, partner 0.312 µg/mL): 0.11; fitness (S. aureus DSM 20231; first compound 0.125 µg/mL, partner 0.039 µg/mL): 0.0991; fitness (S. aureus DSM 20231; [1]): 0.0447; fitness (S. aureus DSM 20231; [2]): 0.0526; fitness (S. aureus DSM 20231; first compound 0.125 µg/mL, partner 0.312 µg/mL): 0.0465; fitness (S. pneumoniae D39V; first compound 0.0125 µg/mL, partner 0.0018 µg/mL): 0.792; fitness (S. pneumoniae D39V; first compound 0.0125 µg/mL, partner 0.0035 µg/mL): 0.812; fitness (S. pneumoniae D39V; first compound 0.0125 µg/mL, partner 0.007 µg/mL): 0.763; fitness (S. pneumoniae D39V; first compound 0.015 µg/mL, partner 0.0018 µg/mL): 0.889; fitness (S. pneumoniae D39V; first compound 0.015 µg/mL, partner 0.0035 µg/mL): 0.908; fitness (S. pneumoniae D39V; first compound 0.015 µg/mL, partner 0.007 µg/mL): 0.803; fitness (S. pneumoniae D39V; first compound 0.025 µg/mL, partner 0.0018 µg/mL): 0.573; fitness (S. pneumoniae D39V; first compound 0.025 µg/mL, partner 0.0035 µg/mL): 0.549; fitness (S. pneumoniae D39V; first compound 0.025 µg/mL, partner 0.007 µg/mL): 0.503; fitness (S. pneumoniae D39V; first compound 0.03 µg/mL, partner 0.0018 µg/mL): 0.709; fitness (S. pneumoniae D39V; first compound 0.03 µg/mL, partner 0.0035 µg/mL): 0.666; fitness (S. pneumoniae D39V; first compound 0.03 µg/mL, partner 0.007 µg/mL): 0.569; fitness (S. pneumoniae D39V; first compound 0.05 µg/mL, partner 0.0018 µg/mL): 0.256; fitness (S. pneumoniae D39V; first compound 0.05 µg/mL, partner 0.0035 µg/mL): 0.253; fitness (S. pneumoniae D39V; first compound 0.05 µg/mL, partner 0.007 µg/mL): 0.184; fitness (S. pneumoniae D39V; first compound 0.06 µg/mL, partner 0.0018 µg/mL): 0.374; fitness (S. pneumoniae D39V; first compound 0.06 µg/mL, partner 0.0035 µg/mL): 0.354; fitness (S. pneumoniae D39V; first compound 0.06 µg/mL, partner 0.007 µg/mL): 0.288; fitness (B. subtilis 168; first compound 0.0039 µg/mL, partner 0.0625 µg/mL, one replicate): 0.681; fitness (B. subtilis 168; first compound 0.0039 µg/mL, partner 0.125 µg/mL, one replicate): 0.531; fitness (B. subtilis 168; first compound 0.0039 µg/mL, partner 0.25 µg/mL, one replicate): 0.442; fitness (B. subtilis 168; first compound 0.0078 µg/mL, partner 0.0625 µg/mL, one replicate): 0.62; fitness (B. subtilis 168; first compound 0.0078 µg/mL, partner 0.125 µg/mL, one replicate): 0.482; fitness (B. subtilis 168; first compound 0.0078 µg/mL, partner 0.25 µg/mL, one replicate): 0.389; fitness (B. subtilis 168; first compound 0.0156 µg/mL, partner 0.0625 µg/mL, one replicate): 0.485; fitness (B. subtilis 168; first compound 0.0156 µg/mL, partner 0.125 µg/mL, one replicate): 0.406; fitness (B. subtilis 168; first compound 0.0156 µg/mL, partner 0.25 µg/mL, one replicate): 0.314; fitness (B. subtilis 168; first compound 0.0625 µg/mL, partner 0.00775 µg/mL, one replicate): 0.473; fitness (B. subtilis 168; first compound 0.0625 µg/mL, partner 0.0155 µg/mL, one replicate): 0.389; fitness (B. subtilis 168; first compound 0.0625 µg/mL, partner 0.031 µg/mL, one replicate): 0.343; fitness (B. subtilis 168; first compound 0.0625 µg/mL, partner 0.5 µg/mL): 0.138; fitness (B. subtilis 168; first compound 0.0625 µg/mL, partner 1 µg/mL): 0.0488; fitness (B. subtilis 168; first compound 0.0625 µg/mL, partner 2 µg/mL): 0.0865; fitness (B. subtilis 168; first compound 0.125 µg/mL, partner 0.00775 µg/mL, one replicate): 0.339; fitness (B. subtilis 168; first compound 0.125 µg/mL, partner 0.0155 µg/mL, one replicate): 0.304; fitness (B. subtilis 168; first compound 0.125 µg/mL, partner 0.031 µg/mL, one replicate): 0.3; fitness (B. subtilis 168; first compound 0.125 µg/mL, partner 0.5 µg/mL): 0.096; fitness (B. subtilis 168; first compound 0.125 µg/mL, partner 1 µg/mL): 0.0462; fitness (B. subtilis 168; first compound 0.125 µg/mL, partner 2 µg/mL): 0.0669; fitness (B. subtilis 168; first compound 0.25 µg/mL, partner 0.00775 µg/mL, one replicate): 0.33; fitness (B. subtilis 168; first compound 0.25 µg/mL, partner 0.0155 µg/mL, one replicate): 0.254; fitness (B. subtilis 168; first compound 0.25 µg/mL, partner 0.031 µg/mL, one replicate): 0.111; fitness (B. subtilis 168; first compound 0.25 µg/mL, partner 0.5 µg/mL): 0.0789; fitness (B. subtilis 168; first compound 0.25 µg/mL, partner 1 µg/mL): 0.0542; fitness (B. subtilis 168; first compound 0.25 µg/mL, partner 2 µg/mL): 0.0739; fitness (S. aureus Newman; first compound 0.0312 µg/mL, partner 0.039 µg/mL, one replicate): 0.525; fitness (S. aureus Newman; first compound 0.0312 µg/mL, partner 0.078 µg/mL): 0.437; fitness (S. aureus Newman; first compound 0.0312 µg/mL, partner 0.156 µg/mL): 0.351; fitness (S. aureus Newman; first compound 0.0312 µg/mL, partner 0.312 µg/mL, one replicate): 0.128; fitness (S. aureus Newman; first compound 0.0312 µg/mL, partner 0.625 µg/mL): 0.055; fitness (S. aureus Newman; first compound 0.0312 µg/mL, partner 1.25 µg/mL): 0.036; fitness (S. aureus Newman; first compound 0.0312 µg/mL, partner 2.5 µg/mL): 0.0433; fitness (S. aureus Newman; first compound 0.0625 µg/mL, partner 0.039 µg/mL, one replicate): 0.161; fitness (S. aureus Newman; first compound 0.0625 µg/mL, partner 0.078 µg/mL): 0.223; fitness (S. aureus Newman; first compound 0.0625 µg/mL, partner 0.156 µg/mL): 0.114; fitness (S. aureus Newman; first compound 0.0625 µg/mL, partner 0.312 µg/mL, one replicate): 0.0773; fitness (S. aureus Newman; first compound 0.0625 µg/mL, partner 0.625 µg/mL): 0.0368; fitness (S. aureus Newman; first compound 0.0625 µg/mL, partner 1.25 µg/mL): 0.0614; fitness (S. aureus Newman; first compound 0.0625 µg/mL, partner 2.5 µg/mL): 0.0509; fitness (S. aureus Newman; first compound 0.125 µg/mL, partner 0.039 µg/mL, one replicate): 0.0501; fitness (S. aureus Newman; [1]): 0.0724; fitness (S. aureus Newman; [2]): 0.0344; fitness (S. aureus Newman; first compound 0.125 µg/mL, partner 0.312 µg/mL, one replicate): 0.113; fitness (S. aureus Newman; first compound 0.125 µg/mL, partner 0.625 µg/mL): 0.0721; fitness (S. aureus Newman; first compound 0.125 µg/mL, partner 1.25 µg/mL): 0.0661; fitness (S. aureus Newman; first compound 0.125 µg/mL, partner 2.5 µg/mL): 0.0579
